Results reported in US7491827B2, “Aryl sulfonamides useful as inhibitors of chemokine receptor activity” (Millennium Pharmaceuticals, Inc., priority 2003, dated 2009).

Target: T1, cloned human CCR8 receptor stably expressed in L1.2 cells (Homo sapiens, UniProt P51685)
T1 construct: expressed in transfected cells
Test: whole cell binding screen: inhibition of biotinylated human I309 binding to CCR8 (FMAT 8100 HTS)
Conditions: Ki of compounds to inhibit I-309 binding to CCR8, L1.2/hCCR8 cells, biotinylated human I-309, 10 point concentration response starting at 10 μM
Source text: This whole cell binding screen evaluates the ability of compounds to inhibit biotinlyated human I309 binding to the cloned human CCR8 receptor stably expressed in L1.2 cells. Human CCR8 gene was amplified by PCR using PFU polymerase under standard conditions from human genomic DNA purchased from Stratagene. The PCR primers used were:
The 5′ and 3′ primers contained flanking enzyme sites (Bam Hi and Not 1,respectively), which were used to subclone the gene into pcDNA3.1. […] The CCR8 vector was then transfected into L1.2 cells (murine pre-B cells) by electroporation.
Compounds were screened using the FMAT™ 8100 HTS System (purchased from Applied Biosystems).
A suspension was prepared of L1.2/hCCR8 cells at 4.0×10^5 cells/mL in a binding buffer (Buffer consisting of Hanks Balanced Salt Solution (without phenol red), 10 mM HEPES, 0.1% Fatty Acid Free BSA, 0.02% Sodium Azide).
Dilution series of 10 mM stock concentrations of the test compounds were prepared in DMSO and further diluted into binding buffer defined above) to three times the final assay concentration.
10 point concentration response curve is constructed for each compound, starting at 10 μM (final assay concentration in Binding Buffer). […] The components were mixed in wells by covering the plate with aluminum foil and rotating for 0.5 hours. […] Average fluorescence reported for each concentration was normalized to percent inhibition based on negative (no inhibitor) and positive (100 nM excess unlabeled I309 (R and D Systems)) controls.

T1 sequence (P51685 whole entry): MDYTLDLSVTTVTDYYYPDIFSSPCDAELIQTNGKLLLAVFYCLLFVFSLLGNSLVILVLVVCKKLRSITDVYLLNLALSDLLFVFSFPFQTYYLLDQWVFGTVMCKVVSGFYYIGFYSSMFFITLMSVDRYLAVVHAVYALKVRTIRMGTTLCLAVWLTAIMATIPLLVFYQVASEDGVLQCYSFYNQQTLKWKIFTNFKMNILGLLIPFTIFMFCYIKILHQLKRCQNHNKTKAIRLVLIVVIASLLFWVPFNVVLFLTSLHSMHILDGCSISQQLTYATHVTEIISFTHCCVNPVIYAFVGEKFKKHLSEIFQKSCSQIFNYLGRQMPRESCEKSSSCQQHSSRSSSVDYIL

`O=C(Nc1ccc(S(=O)(=O)NCc2ccccc2)c2ccccc12)c1ccccc1` [Compound A-3, N-(4-Benzylsulfamoyl-naphthalen-1-yl)-benzamide] and `Cc1ccccc1C(=O)Nc1ccc(S(=O)(=O)NC2CCN(C(=O)C(C)C)CC2)c2ccccc12` [Compound C-51, N-[4-(1-Isobutyryl-piperidin-4-ylsuffamoyl)-naphthalen-1-yl]-2-methyl-benzamide] cannot be ordered by Ki: under 500 nM for the first, under 500 nM for the second.

`CNC(=O)N1CCC(NS(=O)(=O)c2ccc(NC(=O)c3ccccc3C)c3ccccc23)CC1` [Compound C-41, 4-[4-(2-Methyl-benzoylamino)-naphthalene-1-sulfonylamino]-piperidine-1-carboxylic acid methylamide] and `Cc1ccccc1C(=O)Nc1ccc(S(=O)(=O)NC2CCN(C(=O)N3CCCCC3)CC2)c2ccccc12` [Compound C-44, 2-Methyl-N-{4-[1-(piperidine-1-carbonyl)-piperidin-4-ylsulfamoyl]-naphthalen-1-yl}-benzamide] cannot be ordered by Ki: under 500 nM for the first, under 1000 nM for the second.

Same assay, conditions: L1.2/hCCR8 cells, biotinylated human I-309, 10 point concentration response starting at 10 μM; read-out: Ki of compounds to inhibit I-309 binding to CCR8

`Cc1ccccc1C(=O)Nc1ccc(S(=O)(=O)NC2CCN(C(=O)N(C)C)C2)c2c1CCCC2` (racemic) [Compound E-32, (±)-3-[4-(2-Methyl-benzoylamino)-5,6,7,8-tetrahydro-naphthalene-1-sulfonylamino]-pyrrolidine-1-carboxylic acid dimethylamide] and `Cc1ccccc1C(=O)Nc1ccc(S(=O)(=O)NC2CCN(C(=O)N(C)C)CC2)c2c1CCCC2` [Compound E-10, 4-[4-(2-Methyl-benzoylamino)-5,6,7,8-tetrahydro-naphthalene-1-sulfonylamino]-piperidine-1-carboxylic acid dimethylamide] cannot be ordered by Ki: under 500 nM for the first, under 500 nM for the second.

`Cc1ccccc1C(=O)Nc1ccc(S(=O)(=O)N[C@H]2CCN(Cc3ccccc3)C[C@H]2C)c2ccccc12` (racemic) [Compound A-21, (±)-cis-N-[4-(1-Benzyl-3-methyl-piperidin-4-ylsulfamoyl)-naphthalen-1-yl]-2-methyl-benzamide] and `Cc1ccccc1C(=O)Nc1ccc(S(=O)(=O)N[C@H]2CCN(Cc3ccccc3)C[C@H]2C)c2c1CCCC2` (racemic) [Compound E-13, (±)-cis-N-[4-(1-Benzyl-3-methyl-piperidin-4-ylsulfamoyl)-5,6,7,8-tetrahydro-naphthalen-1-yl]-2-methyl-benzamide] cannot be ordered by Ki: under 1000 nM for the first, under 1000 nM for the second.

`CCOC(=O)N1CCC(NS(=O)(=O)c2cccc3c(C(=O)Nc4cccc(C)c4)cccc23)CC1` [Compound H-41, 4-(5-m-Tolylcarbamoyl-naphthalene-1-sulfonylamino)-piperidine-1-carboxylic acid ethyl ester] and `CCOC(=O)N1CCC(NS(=O)(=O)c2cccc3c(NC(=O)c4ccco4)cccc23)CC1` [Compound H-8, 4-{5-[(Furan-2-carbonyl)-amino]-naphthalene-1-sulfonylamino}-piperidine-1-carboxylic acid ethyl ester] cannot be ordered by Ki: under 30000 nM for the first, under 500 nM for the second.

`CCOC(=O)N1CC[C@H](NS(=O)(=O)c2ccc(NC(=O)c3c(C)noc3C)c3ccccc23)[C@H](C)C1` (racemic) [Compound D-8, (±)-(cis)-4-{4-[(3,5-Dimethyl-isoxazole-4-carbonyl)-amino]-naphthalene-1-sulfonylamino}-3-methyl-piperidine-1-carboxylic acid ethyl ester] and `CCCC(=O)N1CC[C@H](NS(=O)(=O)c2ccc(NC(=O)c3cccnc3C)c3ccccc23)[C@@H](C)C1` (racemic) [Compound D-10, (±)-(trans)-N-[4-(1-Butyryl-3-methyl-piperidin-4-ylsulfamoyl)-naphthalen-1-yl]-2-methyl-nicotinamide] cannot be ordered by Ki: under 500 nM for the first, under 500 nM for the second.

`Cc1cccc(NC(=O)c2ccc(S(=O)(=O)NC3CCN(C(=O)N(C)C)CC3)c3ccccc23)c1C` [Compound F-20, 4-[4-(2,3Dimethyl-phenylcarbamoyl)-naphthalene-1-sulfonylamino]-piperidine-1-carboxylic acid dimethylamide] and `CCC(C)N1CCC(NS(=O)(=O)c2ccc(NC(=O)c3ccccc3C)c3ccccc23)CC1` (racemic) [Compound C-32, (±)-N-[4-(1-sec-Butyl-piperidin-4-ylsulfamoyl)-naphthalen-1-yl]-2-methyl-benzamide] cannot be ordered by Ki: under 500 nM for the first, under 1000 nM for the second.

`CC(C)(C)OC(=O)N1CCC(NS(=O)(=O)c2ccc(NC(=O)c3cccnc3)c3ccccc23)CC1` [Compound B-20, 4-{4-[(Pyridine-3-carbonyl)-amino]-naphthalene-1-sulfonylamino}-piperidine-1-carboxylic acid tert-butyl ester] and `CCOC(=O)N1CCC(NS(=O)(=O)c2ccc(CNCc3cccnc3)c3ccccc23)CC1` [Compound G-12, 4-(4-{[(Pyridin-3-ylmethyl)-amino]-methyl}-naphthalene-1-sulfonylamino)-piperidine-1-carboxylic acid ethyl ester] cannot be ordered by Ki: under 1000 nM for the first, under 500 nM for the second.

`COCC(=O)N1CCC(NS(=O)(=O)c2ccc(NC(=O)c3ccccc3C)c3c2CCCC3)CC1` [Compound E-18, N-{4-[1-(2-Methoxy-acetyl)-piperidin-4-ylsulfamoyl]-5,6,7,8-tetrahydro-naphthalen-1-yl}-2-methyl-benzamide] and `CCOC(=O)N1CCCC(NS(=O)(=O)c2ccc(NC(=O)c3ccccc3C)c3c2CCCC3)C1` (racemic) [Compound E-31, (±)-3-[4-(2-Methyl-benzoylamino)-5,6,7,8-tetrahydro-naphthalene-1-sulfonylamino]-piperidine-1-carboxylic acid ethyl ester] cannot be ordered by Ki: under 500 nM for the first, under 500 nM for the second.

`O=C(Nc1cccc2c(S(=O)(=O)NC3CCN(C(=O)N4CCOCC4)CC3)cccc12)c1ccccc1` [Compound H-10] and `Cc1ccccc1C(=O)Nc1ccc(S(=O)(=O)N[C@@H]2[C@H](C)CN(C(=O)N3CCCCC3)C[C@@H]2C)c2ccccc12` [Compound C-72, (±)-(cis,cis)-N-{4-[3,5-Dimethyl-1-(piperidine-1-carbonyl)-piperidin-4-ylsulfamoyl]-naphthalen-1-yl}-2-methyl-benzamide] cannot be ordered by Ki: under 500 nM for the first, under 1000 nM for the second.

`Cc1ccccc1C(=O)Nc1ccc(S(=O)(=O)NC2CCN(C(=O)OC(C)C)CC2(C)C)c2ccccc12` (racemic) [Compound C-22, (±)-3,3-Dimethyl-4-[4-(2-methyl-benzoylamino)-naphthalene-1-sulfonylamino]-piperidine-1-carboxylic acid isopropyl ester] and `CC(=O)N1CC[C@H](NS(=O)(=O)c2ccc(NC(=O)c3ccccc3C)c3ccccc23)[C@@H](C)C1` (racemic) [Compound C-31, (±)-(trans)-N-[4-(1-Acetyl-3-methyl-piperidin-4-ylsulfamoyl)-naphthalen-1-yl]-2-methyl-benzamide] cannot be ordered by Ki: under 500 nM for the first, under 500 nM for the second.

`CC(=O)N1C[C@@H](C)[C@@H](NS(=O)(=O)c2ccc(NC(=O)c3ccccc3C)c3ccccc23)[C@@H](C)C1` [Compound C-73, (±)-(cis,cis)-N-[4-(1-Acetyl-3,5-dimethyl-piperidin-4-ylsulfamoyl)-naphthalen-1-yl]-2-methyl-benzamide] and `CCOC(=O)N1CCC(NS(=O)(=O)c2ccc(CNCc3ccccc3)c3ccccc23)CC1` [Compound G-32, 4-[4-(Benzylamino-methyl)-naphthalene-1-sulfonylamino]-piperidine-1-carboxylic acid ethyl ester] cannot be ordered by Ki: under 1000 nM for the first, under 500 nM for the second.
